pIC50: −log10 of the molar value.
Assays:
c-Kit kinase = c-Kit kinase (Homo sapiens, UniProt P10721); assay: c-Kit kinase biochemical activity assay (AlphaScreen, biotin-(E4Y)10 phosphorylation); conditions: 100 μM ATP; read-out: Biochemical Inhibition IC50 Kit
Method: Assays for biochemical and cell based activity are known in the art, for example, U.S. Patent Application Publication Number 2009/0076046, the disclosure of which is hereby incorporated by reference as it relates to such assays. For example, in one assay the biochemical activity IC50 values are determined with respect to inhibition of c-Kit kinase activity, where inhibition of phosphorylation of a peptide substrate is measured as a function of compound concentration. Compounds to be tested are dissolved in DMSO to a concentration of 20 mM. These are diluted 30 μL into 120 μL of DMSO (4 mM) and 1 μL is added to an assay plate. These are then serially diluted […] (50 μL to 100 μL DMSO) for a total of 8 points. Plates are prepared such that each kinase reaction is 20 μL in 1× kinase buffer (25 mM HEPES, pH 7.5, 2 mM MgCl2, 2 mM MnCl2, 0.01% Tween-20, 1 mM DTT, 0.01% BSA), 5% DMSO and 100 μM ATP. Substrate is 30 nM biotin-(E4Y) 10 (Millipore). C-kit kinase (obtained from Millipore (#14-559) or is prepared as described in U.S. Patent Application Publication Number 2009/0076046, the disclosure of which is hereby incorporated by reference as it relates to this assay) is at 0.75 ng per sample. After incubation of the kinase reaction for 1 hour at room temperature, 5 μL of donor beads (Streptavidin coated beads (Perkin Elmer Life Science) final concentration 10 μg/mL) in stop buffer (25 mM Hepes pH 7.5, 100 mM EDTA, 0.01% BSA) is added, the sample is mixed and incubated for 20 minutes at room temperature before adding 5 μL of acceptor beads (PY20 coated beads (Perkin Elmer Life Science) final concentration 10 μg/mL) in stop buffer. The samples are incubated for 60 minutes at room temperature and the signal per well is read on Envision reader. Phosphorylated substrate results in binding of the PY20 antibody and association of the donor and acceptor beads such that signal correlates with kinase activity. The signal vs. compound concentration is used to determine the IC50.

BCR-FMS BaF3 cells = biological target: T1, BCR-FMS BaF3 cells (Homo sapiens, UniProt P07333); assay: BaF3 BCR-FMS cell proliferation assay (ATPlite); assay type: cell-based; conditions: read-out: Inhibition of Cell Proliferation IC50, BCR/BaF3 Fms
T1 construct: fused on or other part: P11274 (Breakpoint cluster region protein)
T1 sequence (P07333 582-910): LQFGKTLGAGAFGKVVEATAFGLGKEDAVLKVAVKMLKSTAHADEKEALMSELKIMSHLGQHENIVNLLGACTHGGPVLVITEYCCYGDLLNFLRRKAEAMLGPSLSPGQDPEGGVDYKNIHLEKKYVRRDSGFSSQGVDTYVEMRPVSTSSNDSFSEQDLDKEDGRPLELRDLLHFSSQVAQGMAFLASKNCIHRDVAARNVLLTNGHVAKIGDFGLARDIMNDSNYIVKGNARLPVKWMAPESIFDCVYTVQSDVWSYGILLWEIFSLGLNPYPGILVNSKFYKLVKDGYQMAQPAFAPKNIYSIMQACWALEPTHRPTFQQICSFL
Method: Compounds are assessed in a variety of cell based assays. For example BaF3 cells engineered with any of BCR-FMS, BCR-KIT, BCR-FLT3, BCR-NTRK1, BCR-NTRK2, and BCR-NTRK3, are used in cell proliferation assays to assess inhibitory activity of Fms, Kit, Flt-3, TrkA, TrkB, and TrkC, respectively. An MV-4-11 (leukemia) cell proliferation assay is used to assess inhibitory activity in Flt-3, and SKNSH (human neuroblastoma) cell proliferation assay is used to assess efficacy of Fms/Trk inhibitors. Additional cells may be assayed similarly to assess the efficacy of Fms/Trk inhibitors, such as MiaPaCa (human pancreatic cancer) and Capan-1 (human pancreatic carcinoma) cells. Reagent and assay conditions are as follows: • BaF3 cells: • Maintained in RPMI containing 10% FBS, 1% PenStrep, 1% NEAA, and 1% L-Glutamine, supplemented with 1 mg/mL G418 and 5% WEHI-CM (or recombinant murine IL-3). • Confluent cells are split 1:50 to 1:100 every 3-4 days. • MV-4-11 cells: • Maintained in Iscove's Modified Dulbecco's Medium containing 10% FBS. • Confluent cells are split 1:4 every 3-4 days. • SKNSH cells: RPMI containing 10% FBS. On day 1, cells are counted, then centrifuged in a conical tube for 5 minutes at 1000 rpm. The supernatant is removed and cells are re-suspended as follows: • BaF3: resuspend in growth media +1 mg/mL G418 (without WEHFIL-3) to 2×10^5 cells/mL. • MV-4-11: resuspend in growth media to 5×10^5 cells/mL. • SKNSH: resuspend in growth media to 2×10^4 cells/mL. The cells are plated (50 μL, 150 μL for SKNSH cells) in each well of a 96-well dish (Corning 3610) and incubated at 37° C. in 5% CO2 overnight, cells plated to a final concentration of cells as follows: • BaF3: 10,000 cells per well. • MV-4-11: 25,000 cells per well. • SKNSH: 3,000 cells per well. On day 2, compound at a maximum concentration of 5 mM is serially diluted 1:3 for a total of 8 point titration with DMSO as a control. A 1 μL aliquot of each dilution point is added to 249 μL growth media and 50 μL is added to a well containing cells, providing 10 μM compound for the maximum concentration point. The cells are incubated for 3 days at 37° C. in 5% CO2. For SKNSH cells, a 0.75 μL aliquot of appropriate dilution in DMSO is added to 150 μL of cells. On day 5, ATPlite 1 step Luminescence Assay System (Perkin Elmer #6016739) is brought to room temperature along with the cell cultures. ATPlite is added to each well as follows: • BaF3: 25 μL per well. • MV-4-11: 40 μL per well. • SKNSH: 20 μL per well. The cells are incubated at room temperature for 10 minutes, then luminescence is read on Safire reader. The measured luminescence correlates directly with cell number, such that the reading as a function of compound concentration is used to determine the IC50 value.
It is understood that the results of these assays may vary as assay conditions are varied. Inhibition levels determined under the conditions described herein represent a relative activity for the compounds tested under the specific conditions employed. The cell based assays are likely to show variability due to the complexity of the system and the sensitivity thereof to any changes in the assay conditions. […] Results for compounds that are tested and show substantially no inhibition below the highest tested concentration are represented as “-” in the tables below. In some instances, the compounds were not tested in all of the assays, or assay results were not valid, as indicated by NA in the tables below.

Chain of c-Kit kinase (P10721 26-976): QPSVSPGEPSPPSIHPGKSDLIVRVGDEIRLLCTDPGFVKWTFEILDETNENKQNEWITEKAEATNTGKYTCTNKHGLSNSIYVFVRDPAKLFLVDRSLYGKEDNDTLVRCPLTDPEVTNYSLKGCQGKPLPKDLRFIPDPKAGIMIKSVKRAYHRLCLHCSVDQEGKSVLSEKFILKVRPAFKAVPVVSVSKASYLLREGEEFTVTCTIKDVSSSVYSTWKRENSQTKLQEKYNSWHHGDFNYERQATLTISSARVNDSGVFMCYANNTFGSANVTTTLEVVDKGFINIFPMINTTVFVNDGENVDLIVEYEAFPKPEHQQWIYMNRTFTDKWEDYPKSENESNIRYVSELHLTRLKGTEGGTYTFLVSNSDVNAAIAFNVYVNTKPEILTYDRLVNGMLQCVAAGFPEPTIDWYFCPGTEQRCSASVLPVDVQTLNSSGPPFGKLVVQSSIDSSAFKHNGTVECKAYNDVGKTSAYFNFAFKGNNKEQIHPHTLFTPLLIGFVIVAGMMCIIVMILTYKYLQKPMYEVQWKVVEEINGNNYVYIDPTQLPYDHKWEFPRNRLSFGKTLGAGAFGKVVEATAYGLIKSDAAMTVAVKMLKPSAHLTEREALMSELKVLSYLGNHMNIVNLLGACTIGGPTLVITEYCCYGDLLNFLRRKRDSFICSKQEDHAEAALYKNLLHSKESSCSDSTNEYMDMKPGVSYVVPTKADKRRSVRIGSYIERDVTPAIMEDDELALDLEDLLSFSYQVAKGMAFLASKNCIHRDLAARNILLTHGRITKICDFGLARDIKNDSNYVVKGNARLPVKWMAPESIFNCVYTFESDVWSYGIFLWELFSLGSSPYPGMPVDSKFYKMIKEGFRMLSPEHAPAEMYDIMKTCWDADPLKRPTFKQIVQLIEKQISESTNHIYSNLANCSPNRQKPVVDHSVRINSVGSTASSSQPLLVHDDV

| pIC50 (c-Kit kinase) | pIC50 (BCR-FMS BaF3 cells) | SMILES |
| --- | --- | --- |
| > 7.00 | > 8.00 | COc1ccc(Nc2ccc(C(=O)c3c[nH]c4ncnc(NC(C)C)c34)c(F)n2)cn1 [Compound P-4066, [2-fluoro-6-[(6-methoxy-3-pyridyl)amino]-3-pyridyl]-[4-(isopropylamino)-7H-pyrrolo[2,3-d]pyrimidin-5-yl]methanone] |
| > 6.00 | > 8.00 | COc1ccc(Nc2ccc(C(=O)c3c[nH]c4ncnc(NCC5CC5)c34)c(F)n2)cn1 [Compound P-4067, [4-(cyclopropylmethylamino)-7H-pyrrolo[2,3-d]pyrimidin-5-yl]-[2-fluoro-6-[(6-methoxy-3-pyridyl)amino]-3-pyridyl]methanone] |
| > 7.00 | > 8.00 | CCCNc1ncnc2[nH]cc(C(=O)c3ccc(Nc4ccc(OC)nc4)nc3F)c12 [Compound P-4068, [2-fluoro-6-[(6-methoxy-3-pyridyl)amino]-3-pyridyl]-[4-(propylamino)-7H-pyrrolo[2,3-d]pyrimidin-5-yl]methanone] |
| > 6.00 | > 7.00 | COc1ccc(Nc2ccc(C(=O)c3c[nH]c4ncnc(NCC5CCCO5)c34)c(F)n2)cn1 (centres unmarked) [Compound P-4073, [2-fluoro-6-[(6-methoxy-3-pyridyl)amino]-3-pyridyl]-[4-(tetrahydrofuran-2-ylmethylamino)-7H-pyrrolo[2,3-d]pyrimidin-5-yl]methanone] |
| > 7.00 | > 7.00 | COc1ccc(Nc2ccc(C(=O)c3c[nH]c4ncnc(NC5CCC5)c34)c(F)n2)cn1 [Compound P-4076, [4-(cyclobutylamino)-7H-pyrrolo[2,3-d]pyrimidin-5-yl]-[2-fluoro-6-[(6-methoxy-3-pyridyl)amino]-3-pyridyl]methanone] |
| > 6.00 | > 8.00 | CCC(CC)Nc1ncnc2[nH]cc(C(=O)c3ccc(Nc4ccc(OC)nc4)nc3F)c12 [Compound P-4077, [4-(1-ethylpropylamino)-7H-pyrrolo[2,3-d]pyrimidin-5-yl]-[2-fluoro-6-[(6-methoxy-3-pyridyl)amino]-3-pyridyl]methanone] |
| > 6.00 | > 8.00 | CCC(C)Nc1ncnc2[nH]cc(C(=O)c3ccc(Nc4ccc(OC)nc4)nc3F)c12 (centres unmarked) [Compound P-4078, [2-fluoro-6-[(6-methoxy-3-pyridyl)amino]-3-pyridyl]-[4-(sec-butylamino)-7H-pyrrolo[2,3-d]pyrimidin-5-yl]methanone] |
| > 7.00 | > 7.00 | COCCCNc1ncnc2[nH]cc(C(=O)c3ccc(Nc4ccc(OC)nc4)nc3F)c12 [Compound P-4079, [2-fluoro-6-[(6-methoxy-3-pyridyl)amino]-3-pyridyl]-[4-(3-methoxypropylamino)-7H-pyrrolo[2,3-d]pyrimidin-5-yl]methanone] |

Second part, the molecule before the results:

| SMILES | pIC50 (c-Kit kinase) | pIC50 (BCR-FMS BaF3 cells) |
| --- | --- | --- |
| CCc1ccc(Nc2ccc(C(=O)c3c[nH]c4ncnc(NCC(C)(C)O)c34)c(F)n2)cn1 [Compound P-4064, [6-[(6-ethyl-3-pyridyl)amino]-2-fluoro-3-pyridyl]-[4-[(2-hydroxy-2-methyl-propyl)amino]-7H-pyrrolo[2,3-d]pyrimidin-5-yl]methanone] | > 7.00 | > 7.00 |
| CCc1ccc(Nc2ccc(C(=O)c3c[nH]c4ncnc(N)c34)c(F)n2)cn1 [Compound P-4065, (4-amino-7H-pyrrolo[2,3-d]pyrimidin-5-yl)-[6-[(6-ethyl-3-pyridyl)amino]-2-fluoro-3-pyridyl]methanone] | > 7.00 | > 7.00 |
| COc1ccc(Nc2ccc(C(=O)c3c[nH]c4ncnc(N5CCCCC5)c34)c(F)n2)cn1 [Compound P-4069, [2-fluoro-6-[(6-methoxy-3-pyridyl)amino]-3-pyridyl]-[4-(1-piperidyl)-7H-pyrrolo[2,3-d]pyrimidin-5-yl]methanone] | < 6.00 | < 6.00 |
| COc1ccc(Nc2ccc(C(=O)c3c[nH]c4ncnc(N5CCOCC5)c34)c(F)n2)cn1 [Compound P-4070, [2-fluoro-6-[(6-methoxy-3-pyridyl)amino]-3-pyridyl]-(4-morpholino-7H-pyrrolo[2,3-d]pyrimidin-5-yl)methanone] | < 6.00 | < 6.00 |
| COc1ccc(Nc2ccc(C(=O)c3c[nH]c4ncnc(NCc5ccc(C(F)(F)F)nc5)c34)c(F)n2)cn1 [Compound P-4071, [2-fluoro-6-[(6-methoxy-3-pyridyl)amino]-3-pyridyl]-[4-[[6-(trifluoromethyl)-3-pyridyl]methylamino]-7H-pyrrolo[2,3-d]pyrimidin-5-yl]methanone] | < 6.00 | > 7.00 |
| COc1ccc(Nc2ccc(C(=O)c3c[nH]c4ncnc(N[C@@H](C)c5ccc(F)cc5)c34)c(F)n2)cn1 [Compound P-4072, [2-fluoro-6-[(6-methoxy-3-pyridyl)amino]-3-pyridyl]-[4-[[(1S)-1-(4-fluorophenyl)ethyl]amino]-7H-pyrrolo[2,3-d]pyrimidin-5-yl]methanone] | < 6.00 | > 7.00 |
| CCN1CCC(Nc2ncnc3[nH]cc(C(=O)c4ccc(Nc5ccc(OC)nc5)nc4F)c23)CC1 [Compound P-4074, [4-[(1-ethyl-4-piperidyl)amino]-7H-pyrrolo[2,3-d]pyrimidin-5-yl]-[2-fluoro-6-[(6-methoxy-3-pyridyl)amino]-3-pyridyl]methanone] | > 6.00 | > 6.00 |
| COc1ccc(Nc2ccc(C(=O)c3c[nH]c4ncnc(NC5CCCC5)c34)c(F)n2)cn1 [Compound P-4075, [4-(cyclopentylamino)-7H-pyrrolo[2,3-d]pyrimidin-5-yl]-[2-fluoro-6-[(6-methoxy-3-pyridyl)amino]-3-pyridyl]methanone] | > 6.00 | > 8.00 |
